Patent EP0302626A2, “Insecticidal compounds” (IMPERIAL CHEMICAL INDUSTRIES PLC, priority 1987, dated 1989)
Values joined by “and” are separate entries in the source; they are usually repeats but may differ in a detail not shown here. Equal entries are not always repeated. Where two headings read alike, the source gives them in different places.

Experiments:
Assay type in all cases: in vivo
[1] = system: Diabrotica balteata (rootworm larvae); assay: insecticidal mortality test, residual, filter paper/maize seed; settings: read-out: grading of mortality, DB
Experimental: (§1) The activity of the Product was determined using a variety of insect pests. The Product was used in the form of liquid preparations containing 500, 250 or 100 parts per million (ppm) by weight of the Product. The preparations were made by dissolving the Product in acetone and diluting the solutions with water containing 0.01% by weight of a wetting agent sold under the trade name "LlSSAPOL" NX until the liquid preparations contained the required concentration of the Product. "Lissapol" is a Registered Trade Mark.
(§2) The test procedure adopted with regard to each pest was basically the same and comprised supporting a number of the pests on a medium which was usually a host plant or a foodstuff on which the pests feed, and treating either or both the pests and the medium with the preparations. The mortality of the pests was then assessed at periods usually varying from one to three days after the treatment.
(§3) The results of the tests are given in Table III for each of the Products, at the rate in parts per million given in the second column as a grading of mortality designated as A, B or C wherein A indicates 80-100% mortality, B indicates 50-79% mortality and C indicates less than 50% mortality.
(§4) In Table 111 the pest organism used is designated by a letter code and the pests species, the support medium or food, and the type and duration of test is given in Table II.

Nilaparvata lugens = assay: insecticidal mortality test, Nephotettix cincticeps replaced by Nilaparvata lugens; settings: 72 h, read-out: grading of mortality, NC with Nilaparvata lugens
Experimental: as §1, §2, §3, §4

[2] = system: Musca domestica (houseflies - adults); assay: insecticidal mortality test, contact, cotton wool/sugar; settings: read-out: grading of mortality, MD
Experimental: as §1, §2, §3, §4

[3] = system: Tetranychus urticae (spider mites - adult); assay: insecticidal mortality test, contact, French bean leaf; settings: for mortality at 100 ppm: read-out: grading of mortality, Tua, 100 ppm, 3 days
Experimental: as §1, §2, §3, §4

[4] = system: Musca domestica (adult females); assay: Musca domestica knockdown test; settings: 1 cm3 of 30 ppm solution in acetone, Kearns and March chamber, 20 adult females, observed over 10 minutes; average of 2 replicates (* single replicate, ** average of 7 tests)
Experimental: 1 cm³ Of a 30 ppm solution of the test chemical in acetone was sprayed into a Kearns and March chamber containing 20 Musca domestica (adult females). Knockdown was observed over a period of 10 minutes and KT₅₀ and KT₉₀ values (the time taken for 50% and 90% of the insects to be knocked down) were calculated from the observations. The results given in Table V represent average KT values of 2 replicates except where otherwise stated.

Myzus persicae (aphids) = assay: insecticidal mortality test, contact, Chinese Cabbage leaf; settings: 72 h, read-out: grading of mortality, MP
Experimental: as §1, §2, §3, §4

[5] = system: Blattella germanica (cockroach nymphs); assay: insecticidal mortality test, residual, plastic pot; settings: 72 h, read-out: grading of mortality, BG
Experimental: as §1, §2, §3, §4

[6] = system: Blattella germanica (adult males); assay: Blattella germanica knockdown test; settings: tests 1 and 2 are repeats; for % KNOCKDOWN OBSERVED 15 min / % KNOCKDOWN OBSERVED 20 min / pest or weed control at 250 ppm: 250 ppm in kerosene, 1 cm3 sprayed onto 10 adult males; for pest or weed control at 250 ppm / mortality at 250 ppm: Blattella germanica; for pest or weed control at 250 ppm: topical, 10 min, Tetramethrin: mean of 27 observations, read-out: % KNOCKDOWN OBSERVED 10 min; for mortality at 250 ppm: 48 h, 250 ppm spray, insects held at 25°C and 65% relative humidity for 48 hours, read-out: % MORTALITY 48 hrs
Experimental: The test compound was dissolved in acetone (2 cm³) and the solution diluted to a concentration of 250 ppm with kerosene. 1 cm³ Of this preparation was sprayed onto 10 Blattella germanica (adult males) held in a netted plastic pot in a Burkhard potter Tower. Assessment of knockdown was performed at intervals of 5 minutes up to a total of 20 minutes. On removal from the Burkhard Potter Tower, the insects were held at 25°C and 65% relative humidity for 48 hours, and an assessment of mortality performed. Each test was repeated.
In some tests, additional knockdown assessment was performed at intervals of 1, 2, 3 and 4 minutes, and KT₅₀ and KT₉₀ values determined (the time taken, in minutes, to knockdown 50% and 90% respectively of test insects).

[7] = system: Spodoptera exigua (lesser army worm - larvae); assay: insecticidal mortality test, residual, cotton leaf; settings: read-out: grading of mortality, SP
Experimental: as §1, §2, §3, §4

[8] = system: Heliothis virescens (tobacco budworm - larvae); assay: insecticidal mortality test, residual, cotton leaf; settings: read-out: grading of mortality, HV
Experimental: as §1, §2, §3, §4

[9] = system: Nephotettix cincticeps (green leaf hopper - nymphs); assay: insecticidal mortality test, contact, rice plant; settings: 100 ppm, contact, rice plant, read-out: grading of mortality, NC
Experimental: as §1, §2, §3, §4

[10] = Nilaparvata lugens, in Oryza sativa
[11] = 72 h, 100 ppm, residual, cotton leaf, 3 days

| SMILES | mortality at 100 ppm ([1]; 72 h) | mortality at 100 ppm (Nilaparvata lugens; [10]) | mortality at 100 ppm ([2]; 24 h) | mortality at 100 ppm ([3]; Tetranychus urticae, 72 h) | KT₅₀ [4] | KT₉₀ [4] | mortality at 100 ppm (Myzus persicae (aphids)) | mortality at 100 ppm [5] | % KNOCKDOWN OBSERVED 15 min [6] | pest or weed control at 250 ppm [6] | mortality at 100 ppm ([7]; 72 h) | mortality at 100 ppm [8, 11] | mortality at 250 ppm [6] | mortality at 100 ppm ([9]; 72 h, 3 days) | other results |
| --- | --- | --- | --- | --- | --- | --- | --- | --- | --- | --- | --- | --- | --- | --- | --- |
| CC1(C)C(C=C(Cl)C(F)(F)F)C1C(=O)OCc1c(F)c(F)c(CF)c(F)c1F (racemic) [Product II, 4-(Fluoromethyl)-2,3,5,6-tetrafluorobenzyl (1RS,cis)-3-(Z-2-chloro-3,3,3-trifluoroprop-1-en-1-yl)-2,2-dimethyl-cyclopropanecarboxylate] | 80 to 100% | 80 to 100% | 80 to 100% | < 50% | 2.7 min | 5.0 min | 80 to 100% | 80 to 100% | 90% and 100% | 60% | 80 to 100% | 80 to 100% | – | – | % KNOCKDOWN OBSERVED 20 min [6]: 90% |
| CC1(C)C(C=C(Cl)C(F)(F)F)C1C(=O)OCc1c(F)c(F)c(COC=O)c(F)c1F (racemic) [Product IX, 4-(Formyloxymethyl)-2,3,5,6-tetrafluoromethyl (1RS, trans)-3-(Z-2-chloro-3,3,3-trifluoroprop-1-en-1-yl)-2,2-dimethylcyclopropanecarboxylate] | – | – | – | – | 10* mins | 10* mins | 80 to 100% | 80 to 100% | – | 100% | – | – | 100% | – | mortality at 100 ppm ([1]; 48 h): < 50%; mortality at 100 ppm ([2]; 72 h): < 50%; grading of mortality, Tua ([3]; 100 ppm, 3 days, listed as IX, 4320 min): C (C indicates less than 50% mortality); mortality at 100 ppm ([9]; 48 h, test duration of 2 days (footnote +)): 80 to 100%; mortality at 100 ppm ([7]; 48 h): 80 to 100%; mortality at 100 ppm ([8]; 48 h, 100 ppm, residual, cotton leaf, test duration of 2 days (footnote +)): 80 to 100% |
| CC(=O)OCc1c(F)c(F)c(COC(=O)C2C(C=C(Cl)C(F)(F)F)C2(C)C)c(F)c1F (racemic) [Product VI, 4-(Acetoxymethyl)-2,3,5,6-tetrafluorobenzyl (1RS,cis)-3-(Z-2-chloro-3,3,3-trifluoroprop-1-en-1-yl)-2,2-dimethylcyclopropanecarboxylate] | 80 to 100% | – | 80 to 100% | 50 to 79% | 7.0 min | 7.7* mins | 80 to 100% | 80 to 100% | 70% | 30% | 80 to 100% | 80 to 100% | 100% | 80 to 100% | % KNOCKDOWN OBSERVED 20 min [6]: 100% |
| CC1(C)C(C=C(Cl)C(F)(F)F)C1C(=O)OCc1c(F)c(F)c(CN=[N+]=[N-])c(F)c1F (racemic) [Product X, 4-(Azidomethyl)-2,3,5,6-tetrafluorobenzyl (1RS, cis)-3-(Z-2-chloro-3,3,3-trifluoroprop-1-en-1-yl)-2,2-dimethylcyclopropanecarboxylate] | 80 to 100% | – | 80 to 100% | 80 to 100% | 5.0* mins | 9.0* mins | 80 to 100% | 80 to 100% | 100% | 70% | 80 to 100% | 80 to 100% | 100% | 80 to 100% | – |
| CC1(C)C(C=C(Cl)C(F)(F)F)C1C(=O)OCc1c(F)c(F)c(CC#N)c(F)c1F (racemic) [Product XII, 4-(Cyanomethyl)-2,3,5,6-tetrafluorobenzyl (1RS, cis)-3-(Z-2-chloro-3,3,3-trifluoroprop-1-en-1-yl)-2,2-dimethylcyclopropanecarboxylate] | 80 to 100% | – | 80 to 100% | 80 to 100% | 6.8 min | 9.8 min | < 50% | 80 to 100% | – | 100% | 80 to 100% | 80 to 100% | 100% | 80 to 100% | – |
| C#Cc1c(F)c(F)c(COC(=O)C2C(C=C(Cl)C(F)(F)F)C2(C)C)c(F)c1F (racemic) [Product XVI, 4-Ethynyl-2,3,5,6-tetrafluorobenzyl (1RS, cis)-3-(Z-2-chloro-3,3,3-trifluoroprop-1-en-1-yl)-2,2-dimethylcyclopropanecarboxylate] | 80 to 100% | 80 to 100% | 80 to 100% | 50 to 79% | 4.6* mins | 7.0* mins | 80 to 100% | 80 to 100% | – | 100% | 80 to 100% | 80 to 100% | 100% | – | – |
| CC(C)=NNc1c(F)c(F)c(COC(=O)[C@@H]2[C@H](/C=C(\Cl)C(F)(F)F)C2(C)C)c(F)c1F (relative stereo) [Product XIII, 4-(prop-2-ylidenehydrazino)-2,3,5,6-tetrafluorobenzyl (1RS, cis)-3-(Z-2-chloro-3,3,3-trifluoroprop-1-en-1-yl)-2,2-dimethylcyclopropanecarboxylate] | 80 to 100% | 80 to 100% | 80 to 100% | < 50% | – | – | 50 to 79% | 80 to 100% | – | – | – | – | – | – | mortality at 100 ppm ([8]; 72 h): 80 to 100% |
| CC(C)=NNc1c(F)c(F)c(COC(=O)[C@@H]2[C@H](C=C(Cl)Cl)C2(C)C)c(F)c1F (relative stereo) [Product XV, 4-(prop-2-ylidenehydrazino)-2,3,5,6-tetrafluorobenzyl (1RS, cis)-3-(2,2-dichloroethenyl)-2,2-dimethyl-cyclopropanecarboxylate] | – | – | – | – | – | – | – | – | – | – | – | – | – | – | mortality at 500 ppm ([1]; 72 h): 80 to 100%; mortality at 500 ppm (Nilaparvata lugens; [10]): 80 to 100%; mortality at 500 ppm ([2]; 24 h): 80 to 100%; mortality at 500 ppm (Myzus persicae (aphids)): 80 to 100%; mortality at 500 ppm [5]: 80 to 100%; mortality at 500 ppm ([8]; 72 h): 80 to 100% |
| C#Cc1c(F)c(F)c(COC(=O)C2C(C)(C)C2(C)C)c(F)c1F [Product XVII, 4-Ethynyl-2,3,5,6-tetrafluorobenzyl-2,2,3,3-tetramethylcyclopropanecarboxylate] | – | – | – | – | 4.1 min | 7.5 min | – | – | – | – | – | – | – | – | mortality at 500 ppm ([1]; 72 h, 500 ppm, residual, filter paper/maize seed, 3 days): < 50%; mortality at 500 ppm (Nilaparvata lugens; 500 ppm, footnote *: Nephotettix cincticeps replaced by Nilaparvata lugens, otherwise as NC test (contact, rice plant, 3 days)): 80 to 100%; mortality at 500 ppm ([2]; 24 h, 500 ppm, contact, cotton wool/sugar, 1 day): 80 to 100%; mortality at 500 ppm ([3]; Tetranychus urticae, 72 h, 500 ppm, 3 days, read-out: grading of mortality, Tua): 80 to 100%; mortality at 500 ppm (Myzus persicae (aphids); 500 ppm, contact, Chinese Cabbage leaf, 3 days): < 50%; mortality at 500 ppm ([5]; 500 ppm, residual, plastic pot, 3 days): 80 to 100%; mortality at 500 ppm ([7]; 72 h, 500 ppm, residual, cotton leaf, 3 days): 80 to 100%; mortality at 500 ppm ([8]; 72 h): 80 to 100% |
